Activity calls are given as the source filed them.
Legend:
[1] = non-specific 3'UTR reporter inhibition in Clone20-Shn3RL – cell-based, Renilla luciferase, cherry-picked, counter-screen for Shn3 inhibitor project, dose response (AID 624133); assay type: functional
[2] = molecular target: T1, High affinity choline transporter 1 (Homo sapiens, UniProt Q9GZV3); assay: human choline transporter blockers, potency – cell-based, 5-point CRC, membrane potential dye, dose response (AID 504840); assay type: functional
T1 sequence (Q9GZV3 whole entry): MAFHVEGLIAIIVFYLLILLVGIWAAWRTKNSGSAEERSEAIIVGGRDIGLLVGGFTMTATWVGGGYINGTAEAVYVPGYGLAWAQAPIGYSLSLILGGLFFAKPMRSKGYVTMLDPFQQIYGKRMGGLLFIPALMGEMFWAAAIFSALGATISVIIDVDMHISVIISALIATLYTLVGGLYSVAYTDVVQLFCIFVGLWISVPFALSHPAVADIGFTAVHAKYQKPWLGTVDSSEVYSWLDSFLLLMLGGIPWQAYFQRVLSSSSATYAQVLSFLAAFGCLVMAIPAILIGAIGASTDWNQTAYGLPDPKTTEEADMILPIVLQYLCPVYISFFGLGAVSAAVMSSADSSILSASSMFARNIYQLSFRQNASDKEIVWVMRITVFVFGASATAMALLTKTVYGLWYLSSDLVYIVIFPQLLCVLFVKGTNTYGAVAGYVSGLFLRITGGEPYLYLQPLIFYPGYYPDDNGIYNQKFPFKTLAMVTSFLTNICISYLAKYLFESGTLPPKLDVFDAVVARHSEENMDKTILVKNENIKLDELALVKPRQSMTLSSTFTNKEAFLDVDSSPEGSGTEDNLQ

[3] = cells; assay type: functional
[4] = THP-1 cell cytotoxicity, dose response, cytotoxicity control for non-replicating M. tuberculosis project (AID 489025); assay type: functional
[5] = reduction of Shn3 3'UTR-driven luciferase in osteoblasts – cell-based, Clone20 osteoblasts, firefly luciferase, cherry-picked, dose response (AID 624132); assay type: functional;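 note: firefly luciferase luminescence from reporter carrying the Shn3 3'UTR in osteoblasts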
[6] = microbe, parasite or virus in culture; assay type: functional; settings: Mycobacterium tuberculosis
[7] = tested on: A-375; assay: proliferation inhibition in MITF-low A375 cells – cell-based, cherry-pick samples, set 2, counter-screen for MITF modulator project, dose response (AID 540335); assay type: functional; settings: Homo sapiens
[8] = HepG2 cell cytotoxicity, dose response, cytotoxicity control for non-replicating M. tuberculosis project (AID 489018); assay type: functional; settings: Mycobacterium tuberculosis
[9] = loss of viability in HepG2 cells – cell-based, CellTiter-Glo, cherry-picked, cytotoxicity control for Shn3 inhibitor project, dose response (AID 624134); assay type: functional
[10] = Vero E6 cell cytotoxicity, dose response, cytotoxicity control for non-replicating M. tuberculosis project, secondary assay (AID 492998); assay type: functional, VeroE6; settings: Vero C1008
[11] = molecular target: T2, Microphthalmia-associated transcription factor (Homo sapiens, UniProt O75030); assay: reducers of TRPM1 reporter luminescence, concentration series – cell-based, SK-MEL-5, cherry-picked, set 3, MITF inhibitor project, dose response (AID 493073); assay type: functional;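 note: SK-MEL-5 melanoma cells with luciferase driven by the MITF target TRPM1 promoter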
T2 sequence (O75030 whole entry): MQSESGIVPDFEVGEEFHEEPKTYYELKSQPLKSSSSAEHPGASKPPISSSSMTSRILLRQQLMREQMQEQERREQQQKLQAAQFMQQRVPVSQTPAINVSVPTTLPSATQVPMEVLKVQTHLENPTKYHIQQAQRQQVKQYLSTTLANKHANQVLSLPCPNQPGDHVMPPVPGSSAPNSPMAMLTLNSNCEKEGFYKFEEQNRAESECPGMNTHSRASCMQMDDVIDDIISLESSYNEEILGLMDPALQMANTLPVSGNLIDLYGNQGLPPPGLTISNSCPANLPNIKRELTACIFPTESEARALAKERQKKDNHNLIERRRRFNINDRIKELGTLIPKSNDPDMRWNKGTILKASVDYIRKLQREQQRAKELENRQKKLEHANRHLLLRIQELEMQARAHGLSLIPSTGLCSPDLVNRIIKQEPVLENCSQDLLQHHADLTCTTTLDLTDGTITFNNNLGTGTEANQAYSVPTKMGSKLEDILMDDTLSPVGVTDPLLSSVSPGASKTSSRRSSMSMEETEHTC

[12] = general cell-killing toxicity readout – plate reader, dry powder samples, cytotoxicity control for PAX8 inhibitor project, dose response (AID 743021); assay type: functional, cell-based
[13] = molecular target: C-C chemokine receptor type 6 (Homo sapiens, UniProt P51684); assay: antagonism of CCR6 beta-arrestin recruitment – cell-based, luminescent beta-arrestin readout, dose response (AID 504728); assay type: functional
[14] = molecular target: Beta-galactosidase (Escherichia coli, UniProt Q8VNN2); assay: detection-enzyme interference by beta-gal modulators – biochemical, E. coli enzyme, set 3, artefact control for CCR6 antagonist project, dose response (AID 504712); assay type: functional
[15] = molecular target: T3, Heat shock factor protein 1 (Mus musculus, UniProt P38532); assay: decrease of HSF1-responsive luciferase luminescence – cell-based, NIH3T3, dose retest, confirmation (AID 2382); assay type: functional;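 note: NIH3T3 fibroblasts with HSF1-driven luciferase reporter stressed by proteasome inhibitor MG132; luminescence from HSF1-driven luciferase expression after 8 hours of MG132 stress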
T3 sequence (P38532 whole entry): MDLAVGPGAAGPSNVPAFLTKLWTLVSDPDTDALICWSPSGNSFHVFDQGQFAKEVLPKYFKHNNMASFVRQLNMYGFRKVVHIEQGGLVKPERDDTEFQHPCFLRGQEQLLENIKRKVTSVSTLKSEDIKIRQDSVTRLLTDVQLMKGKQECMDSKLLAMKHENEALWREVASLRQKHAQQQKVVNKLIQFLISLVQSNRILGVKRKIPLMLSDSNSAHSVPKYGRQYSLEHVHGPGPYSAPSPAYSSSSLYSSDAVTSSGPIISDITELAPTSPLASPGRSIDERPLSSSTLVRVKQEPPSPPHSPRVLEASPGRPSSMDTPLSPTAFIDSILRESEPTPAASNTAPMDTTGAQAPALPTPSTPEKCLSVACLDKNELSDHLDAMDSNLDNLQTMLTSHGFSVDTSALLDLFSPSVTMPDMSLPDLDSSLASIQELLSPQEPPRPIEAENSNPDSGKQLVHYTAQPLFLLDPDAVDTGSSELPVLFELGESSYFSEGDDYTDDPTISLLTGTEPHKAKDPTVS

[16] = Trypanosoma cruzi growth suppression in host cells – NIH3T3 host cells, beta-gal luminescence, confirmation (AID 2044); assay type: functional, cell-based;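 note: intracellular parasites grown in NIH/3T3 mouse fibroblasts as host cells; luminescent beta-galactosidase reporter signal from transgenic T. cruzi replicating inside host cells; inhibitors lower the luminescence signal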
[17] = NIH3T3 cell viability loss – ATP luminescence, mouse fibroblasts, counter-screen, dose response (AID 2010); assay type: functional, cell-based;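 note: cells exposed to compound for about 90 hours before reading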
[18] = tested on: INS1; assay: INS-1E survival protection against cytokine death – cell-based, luminescence, retest, dose response (AID 449756); assay type: functional; settings: Rattus norvegicus;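 note: cell death triggered by IL-1 beta plus TNF-alpha plus IFN-gamma mixture; protective hits raise ATP signal compared with cytokine alone wells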
[19] = Luminescence Cell-Based Dose Retest to Confirm Inhibitors of Cancer Stem Cells. [Related pubchem assays (depositor defined):AID2717, AID2721]; assay type: functional; settings: Homo sapiens
[20] = molecular target: Paired box protein Pax-8 (Homo sapiens, UniProt Q06710); assay: PAX8 transcriptional activity inhibition in RMG-I – RMG-I cells, luciferase, cherry-pick, dose response (AID 687027); assay type: functional, cell-based;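 note: luciferase reporter driven by Pax8 target thyroperoxidase promoter measured by SteadyGlo luminescence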
[21] = molecular target: T4, Short transient receptor potential channel 4 (Mus musculus, UniProt Q9QUQ5); assay: calcium entry via TRPC4 opening agents – cell-based, HEK293 TRPC4/mu-opioid, Fluo-4 calcium, dose response (AID 434937); assay type: functional
T4 sequence (Q9QUQ5 whole entry): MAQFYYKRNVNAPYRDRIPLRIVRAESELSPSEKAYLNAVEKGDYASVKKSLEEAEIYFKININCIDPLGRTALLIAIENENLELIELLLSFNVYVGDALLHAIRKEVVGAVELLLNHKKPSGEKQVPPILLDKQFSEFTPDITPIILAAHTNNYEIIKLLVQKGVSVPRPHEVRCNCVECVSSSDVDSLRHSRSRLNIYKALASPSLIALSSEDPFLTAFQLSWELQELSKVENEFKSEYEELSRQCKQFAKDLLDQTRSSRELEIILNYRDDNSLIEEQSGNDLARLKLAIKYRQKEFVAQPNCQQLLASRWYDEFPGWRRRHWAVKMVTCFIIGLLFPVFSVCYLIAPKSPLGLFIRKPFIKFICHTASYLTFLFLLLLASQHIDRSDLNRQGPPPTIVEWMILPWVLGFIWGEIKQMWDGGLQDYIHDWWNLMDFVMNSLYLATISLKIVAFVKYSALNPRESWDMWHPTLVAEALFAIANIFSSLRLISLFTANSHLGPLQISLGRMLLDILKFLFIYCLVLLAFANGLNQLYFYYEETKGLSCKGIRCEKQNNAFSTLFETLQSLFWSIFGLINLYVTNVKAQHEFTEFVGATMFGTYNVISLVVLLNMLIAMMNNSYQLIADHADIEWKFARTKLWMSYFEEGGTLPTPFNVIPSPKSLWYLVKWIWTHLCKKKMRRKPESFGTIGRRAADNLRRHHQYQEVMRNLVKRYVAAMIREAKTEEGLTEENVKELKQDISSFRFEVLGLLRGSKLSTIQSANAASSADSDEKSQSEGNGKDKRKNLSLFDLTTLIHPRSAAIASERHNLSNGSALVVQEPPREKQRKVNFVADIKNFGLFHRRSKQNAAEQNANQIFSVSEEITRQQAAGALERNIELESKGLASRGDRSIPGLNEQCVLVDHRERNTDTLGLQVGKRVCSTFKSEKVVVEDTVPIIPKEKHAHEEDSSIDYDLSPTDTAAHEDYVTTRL

[22] = molecular target: 5-hydroxytryptamine receptor 5A (Homo sapiens, UniProt P47898); assay: Counterscreen for agonists of OPRM1-OPRD1 heterodimerization: luminescence-based cell-based high throughput dose response assay to identify agonists of 5-hydroxytryptamine (serotonin) 5A receptor (HTR5A). [Related pubchem assays (depositor defined):AID504326, AID504355, AID504692, AID504904, AID504905]; assay type: functional
[23] = molecular target: Mu-type opioid receptor (Homo sapiens, UniProt P35372); assay: (§1) Counterscreen for agonists of heterodimerization of the mu 1 (OPRM1) and delta 1 (OPRD1) opioid receptors: Luminescence-based cell-based high throughput dose response assay to identify agonists of OPRM1 homodimerization.; assay type: functional
[24] = molecular target: Delta-type opioid receptor (Homo sapiens, UniProt P41143); assay: as §1, with “of OPRD1” for “of OPRM1”, “homodimerization. [Related pubchem assays (depositor defined):AID504326, AID504355, AID504692, AID504904, AID504905]” for “homodimerization.”; assay type: functional
Sequence of Delta-type opioid receptor (P41143 whole entry): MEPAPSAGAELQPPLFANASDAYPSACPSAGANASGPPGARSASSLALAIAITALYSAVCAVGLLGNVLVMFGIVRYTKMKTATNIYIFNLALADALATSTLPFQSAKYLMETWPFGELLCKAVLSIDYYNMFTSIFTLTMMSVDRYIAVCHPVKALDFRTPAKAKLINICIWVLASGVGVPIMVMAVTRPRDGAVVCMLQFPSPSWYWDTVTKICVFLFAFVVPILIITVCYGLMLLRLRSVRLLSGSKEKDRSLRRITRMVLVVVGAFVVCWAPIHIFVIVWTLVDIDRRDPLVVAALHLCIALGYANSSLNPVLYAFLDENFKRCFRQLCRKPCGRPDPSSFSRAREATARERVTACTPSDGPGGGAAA

Sequence of Mu-type opioid receptor (P35372 whole entry): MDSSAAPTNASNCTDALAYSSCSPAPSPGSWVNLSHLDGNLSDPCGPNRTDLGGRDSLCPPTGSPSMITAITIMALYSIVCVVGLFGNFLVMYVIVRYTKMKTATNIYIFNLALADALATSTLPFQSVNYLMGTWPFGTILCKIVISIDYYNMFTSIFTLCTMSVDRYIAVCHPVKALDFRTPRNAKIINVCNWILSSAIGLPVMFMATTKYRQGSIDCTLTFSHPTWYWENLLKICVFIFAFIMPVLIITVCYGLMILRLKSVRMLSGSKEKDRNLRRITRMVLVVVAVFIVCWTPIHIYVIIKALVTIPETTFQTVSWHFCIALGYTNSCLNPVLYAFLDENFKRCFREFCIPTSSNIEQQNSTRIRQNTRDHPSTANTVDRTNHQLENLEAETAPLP
Sequence of 5-hydroxytryptamine receptor 5A (P47898 whole entry): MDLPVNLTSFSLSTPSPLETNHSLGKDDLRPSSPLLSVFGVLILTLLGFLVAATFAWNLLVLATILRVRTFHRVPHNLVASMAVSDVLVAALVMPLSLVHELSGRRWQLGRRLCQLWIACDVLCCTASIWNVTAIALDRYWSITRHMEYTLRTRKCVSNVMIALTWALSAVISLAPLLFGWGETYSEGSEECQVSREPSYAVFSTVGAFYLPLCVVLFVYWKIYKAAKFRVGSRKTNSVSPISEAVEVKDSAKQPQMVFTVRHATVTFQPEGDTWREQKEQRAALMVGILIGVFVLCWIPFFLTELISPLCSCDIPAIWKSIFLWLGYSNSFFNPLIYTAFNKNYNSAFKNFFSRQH
Sequence of Paired box protein Pax-8 (Q06710 whole entry): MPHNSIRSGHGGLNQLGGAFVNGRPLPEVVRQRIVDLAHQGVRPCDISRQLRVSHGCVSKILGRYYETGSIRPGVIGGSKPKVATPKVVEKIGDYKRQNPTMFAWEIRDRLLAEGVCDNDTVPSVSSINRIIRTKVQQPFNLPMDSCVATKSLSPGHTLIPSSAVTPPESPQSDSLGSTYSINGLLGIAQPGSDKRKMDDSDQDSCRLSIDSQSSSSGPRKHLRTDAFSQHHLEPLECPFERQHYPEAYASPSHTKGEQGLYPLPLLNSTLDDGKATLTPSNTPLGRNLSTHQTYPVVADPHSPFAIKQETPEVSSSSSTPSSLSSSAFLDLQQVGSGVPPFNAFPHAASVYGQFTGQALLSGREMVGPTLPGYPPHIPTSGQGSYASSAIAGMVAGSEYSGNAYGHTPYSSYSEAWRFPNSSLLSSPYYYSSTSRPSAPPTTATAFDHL
Sequence of C-C chemokine receptor type 6 (P51684 whole entry): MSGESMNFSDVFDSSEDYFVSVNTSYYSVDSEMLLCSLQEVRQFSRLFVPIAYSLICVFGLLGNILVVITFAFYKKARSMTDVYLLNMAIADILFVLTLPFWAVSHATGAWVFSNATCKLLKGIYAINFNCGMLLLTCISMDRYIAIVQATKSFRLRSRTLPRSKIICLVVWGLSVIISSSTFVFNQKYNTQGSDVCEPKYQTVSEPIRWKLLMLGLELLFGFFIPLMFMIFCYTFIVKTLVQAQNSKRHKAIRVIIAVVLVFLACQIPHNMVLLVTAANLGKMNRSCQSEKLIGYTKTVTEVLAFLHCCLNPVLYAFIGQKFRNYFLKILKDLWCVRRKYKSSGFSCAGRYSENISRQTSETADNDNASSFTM
Sequence of Beta-galactosidase (Q8VNN2 whole entry): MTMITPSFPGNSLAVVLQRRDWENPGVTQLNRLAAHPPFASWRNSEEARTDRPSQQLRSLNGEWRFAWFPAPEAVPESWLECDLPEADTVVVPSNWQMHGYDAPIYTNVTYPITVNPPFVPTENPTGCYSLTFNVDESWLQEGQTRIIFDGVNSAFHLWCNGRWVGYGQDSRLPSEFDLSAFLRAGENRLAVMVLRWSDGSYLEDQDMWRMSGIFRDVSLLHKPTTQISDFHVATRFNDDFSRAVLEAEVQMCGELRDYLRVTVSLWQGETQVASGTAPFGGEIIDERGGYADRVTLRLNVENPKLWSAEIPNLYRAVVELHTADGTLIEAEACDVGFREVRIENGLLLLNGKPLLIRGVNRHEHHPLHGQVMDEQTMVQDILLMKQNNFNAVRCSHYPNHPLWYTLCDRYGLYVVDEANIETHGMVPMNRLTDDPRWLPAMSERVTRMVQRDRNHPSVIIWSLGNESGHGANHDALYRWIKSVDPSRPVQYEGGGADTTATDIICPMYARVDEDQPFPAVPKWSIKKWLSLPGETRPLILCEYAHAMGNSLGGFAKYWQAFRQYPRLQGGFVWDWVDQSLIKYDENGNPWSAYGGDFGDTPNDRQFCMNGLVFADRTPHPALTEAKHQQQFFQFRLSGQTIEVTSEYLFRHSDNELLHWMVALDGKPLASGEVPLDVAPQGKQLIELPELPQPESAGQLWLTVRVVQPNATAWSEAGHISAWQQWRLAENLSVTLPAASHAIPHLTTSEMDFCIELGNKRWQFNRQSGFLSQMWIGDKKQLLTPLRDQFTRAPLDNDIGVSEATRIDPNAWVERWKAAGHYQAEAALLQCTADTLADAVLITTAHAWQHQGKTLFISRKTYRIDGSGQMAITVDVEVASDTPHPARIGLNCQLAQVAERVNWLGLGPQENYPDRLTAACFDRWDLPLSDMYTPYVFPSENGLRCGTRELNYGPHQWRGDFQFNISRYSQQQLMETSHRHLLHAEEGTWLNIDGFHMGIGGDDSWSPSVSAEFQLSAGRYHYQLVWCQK

**Q.** Which results are given for N=c1n(Cc2ccc(Cl)cc2)c2ccccc2n1CC(O)COc1ccccc1 (stereo unspecified)?
**A.** AC50 [1]: 3.61 µM (active); IC50 [2]: 15 µM (active); IC50 [3]: 14.1 µM (active); CC50 [4]: 11.8 µM (active); AC50 [5]: 2.34 µM (active); CC50 [6]: 11.6 µM (active); AC50 [7]: 13.9 µM (active); CC50 [8]: 8.02 µM (active); AC50 [9]: 14.2 µM (active); CC50 [10]: 11.8 µM (active); AC50 [11]: 9.25 µM (active)

**Q.** Which AC50 [12] does the source give for Cc1ccc(C(=O)N/C(=C\c2ccc(-c3ccc(Br)cc3)o2)C(=O)NCCCN(C)C)cc1 here?
**A.** The AC50 was 61.2 µM (active).

**Q.** What about the IC50 [13] of the same compound?
**A.** The IC50 was 24.6 µM (inactive).

**Q.** What about the IC50 [14] of the same compound?
**A.** The IC50 was > 66.6 µM (inactive).

**Q.** What about the EC50 [15] of the same compound?
**A.** The EC50 was 24.1 µM (active).

**Q.** And the EC50 [16]?
**A.** Its EC50 is 1.56 µM (active).

**Q.** And the EC50 [17]?
**A.** Its EC50 is > 30 µM (not active).

**Q.** And the AC50 [7]?
**A.** The AC50 was 17.7 µM (active).

**Q.** What about the AC50 [18] of the same compound?
**A.** Its AC50 is 7.33 µM (active).

**Q.** And the AC50 [19]?
**A.** The AC50 was 2.81 µM (active).

**Q.** What about the AC50 [11] of the same compound?
**A.** Its AC50 is 6.84 µM (active).

**Q.** What about the AC50 [20] of the same compound?
**A.** Its AC50 is 17.4 µM (active).

**Q.** Which results are given for COc1ccc(C(CNC(=O)c2ccc(S(=O)(=O)N(C)C)cc2)N(C)C)cc1 (stereo unspecified)?
**A.** EC50 [21]: 1.5 µM (active); EC50 [22]: > 92.5 µM (inactive); EC50 [23]: > 92.5 µM (inactive); EC50 [24]: 85.6 µM (inactive)
